We go through one molecule from patent US20030059843A1, “High throughput screening of ligand binding to macromolecules using high resolution powder diffraction” (priority 2001, published 2003).

In this test the target is T1, Chicken egg lysozyme (Gallus gallus, UniProt P00698).
T1 construct: Chicken egg lysozyme (EC 3.2.1.17, FisherBiotech, 3X crystallized, lot Nos. 995417-12 and 996924-12); purchased FisherBiotech; host or cells: chicken egg (natural source)
In words: Ligand binding to polycrystalline lysozyme detected by high resolution X-ray powder diffraction. The text has this:
The screening method of the present invention can be as follows. Two samples of polycrystalline material are produced as slurries. By “slurry” is meant, for example, a suspension of microcrystals of a macromolecule or macromolecule-ligand complex in a liquid. One of the samples includes the target protein or macromolecule and a suitable solvent. The other of the samples includes the target protein or macromolecule, one or more selected ligands and the same solvent as in the first sample. High resolution powder diffraction patterns are obtained for the polycrystalline macromolecule material in each sample. The patterns from the first and second samples are then compared to see if there is any discernable difference between the two sets of diffraction patterns beyond expected or measured experimental error or variation. When there is such a discernable difference between the two sets of diffraction patterns, that is a positive indication for the formation of a complex between the target protein or macromolecule and one or more of the selected ligands. […] In another manner, the pattern of the first sample can be inspected or analyzed to determine the positions of the diffraction peaks from the unbound form of the target protein or macromolecule, while the pattern of the second sample can be inspected or analyzed to determine the positions of the diffraction peaks from the target protein or macromolecule in the presence of the one or more selected ligands. Differences in such diffraction peaks can then be used to determine if there is a difference indicating binding of a ligand. This process is readily automated via computerized data processing routines.
Chicken egg lysozyme (EC 3.2.1.17, FisherBiotech, 3X crystallized, lot Nos. 995417-12 and 996924-12) and N-acetylglucosamine (NAG, ICN Biomedicals, Inc. lot No. R9745), pH 6.0 0.05M Na2HPO4/KH2PO4 buffer (Fisher Sci.), pH 5.0 0.05M KHphthalate/NaOH buffer (Hydrion™, Aldrich Chem.) and NaCl (“Certified for Biological Use”, Fisher Sci.) were used as received. In a typical sample preparation, a polycrystalline slurry was made by combining ˜20 mg lysozyme (1.4 μmol), about 10 mg of NAG (45 μmol) and 200 μl of 0.5M NaCl pH 6.0 buffer with an agate mortar and pestle. Polycrystalline precipitate formed within a few seconds. The slurry was loaded into a 1.5 mm diameter glass capillary, and centrifuged to pack the slurry. Excess mother liquor was removed and the capillary flame sealed to prevent subsequent solvent evaporation. In a similar way, a polycrystalline sample of unbound lysozyme in pH 6.0 0.5M NaCl buffer was prepared. Similar samples with pH 5.0 0.5M NaCl buffer were also prepared. Samples were about 8 mm long. As each sample was prepared, X-ray powder diffraction data were immediately collected at room temperature (23° C.) on beam line X3bl at the National Synchrotron Light Source, Brookhaven National Laboratory, equipped with a double Si(111) monochromator and a Ge(111) analyser; the sample was spun during data collection to ensure good powder averaging.

Entries after “also recorded” stand apart in the source; their conditions may differ.

T1 sequence (P00698 19-147): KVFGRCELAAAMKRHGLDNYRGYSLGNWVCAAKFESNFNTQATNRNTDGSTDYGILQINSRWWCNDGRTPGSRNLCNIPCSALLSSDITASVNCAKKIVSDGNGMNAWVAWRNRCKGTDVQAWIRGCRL

In the case of `CC(=O)N[C@H]1C(O)O[C@H](CO)[C@@H](O)[C@@H]1O` (stereo partly shown) [NAG, N-acetylglucosamine], the “lattice parameter a smaller compared to pure lysozyme from the same solvent” value (pH 5.0 0.5M NaCl) turned out to be 0.06%. For the setting “pH 5.0 0.5M NaCl”, the “lattice parameter c larger compared to pure lysozyme from the same solvent” value came out at 0.15%. In addition, the “lattice parameter a smaller compared to apo-protein precipitated from the same buffer” value (pH 6.0 0.5M NaCl) was determined as 0.21%. Besides, under “pH 6.0 0.5M NaCl”, the “lattice parameter c larger compared to apo-protein precipitated from the same buffer” value is on record as 0.49%. Further, the “change in powder diffraction pattern versus unbound lysozyme (complex formation)” value (slurry from pH 5.0 0.5M NaCl buffer, FIG. 2) is listed as “no visible change in the powder pattern; also recorded: no changes evident”; the “change in powder diffraction pattern versus unbound lysozyme (complex formation)” value (slurry from pH 6.0 0.5M NaCl buffer, FIG. 1) was “a structural modification has occurred associated with the formation of a NAG/lysozyme complex”; the “change in powder diffraction pattern versus unbound lysozyme (complex formation)” value (slurry from pH 6.0 0.5M NaCl buffer, FIG. 1, listed as α-NAG) was “easily visible changes in the powder diffraction patterns”.
